Results: article PMC5062570 (Nature Communications, 2016)
“Also recorded” adds a separate entry of the source. Like-named read-outs stand apart in the source and are kept apart here.

Legend:
CatD in ARPE-19 cells = CatD in ARPE-19 cells (Homo sapiens, UniProt P07339); experiment: Live cell lysosome neutralization and PF-7802 labelling of CatD; conditions: ammonium chloride 10 mM, 2 h or bafilomycin A1 400 nM, 4 h before labelling
Method: Immunoblots were scanned using a LiCor Odyssey. The integrated optical density of each in-gel fluorescence band was measured using ImageJ, and normalized to the CatD heavy chain protein level, also determined in ImageJ. For imaging experiments, cells were plated on coverslips and neutralized as described above. LysoSensor DND-189 (1 μM, Thermo Scientific) was then added for 30 min, followed by a 1 h washout in fresh culture media containing the neutralization reagents. Nuclei were stained with Hoescht 33342 for 5 min (20 μM, Thermo Fisher), and cells imaged live with a Zeiss LSM 780 Laser Scanning Confocal Microscope using a W Plan-Apochromat 63 × /1.0 M27 immersion objective. A 488 nm laser (10% laser power, detection from 490 to 552 nm) and 405 nm laser (6% laser power, detection from 410 to 468 nm) were used, respective detector gains set at 700 and 878, and 12-bit images acquired. Image processing was completed in ZEN lite 2012.

[1] = system: retinal pigment epithelium (RPE); set-up: method as in PMID 22090477, PMID 25361751; conditions: cited from earlier work
[2] = Plasma exposure (average unbound plasma concentration) in rats; format: in vivo, rat; conditions: Wistar Han, oral, rat, average unbound plasma concentration, read-out: Avg Cp,u parent
Method: (§1) Wistar Han rats (obtained from Charles River, 125–300 g, 6–9 weeks old at study start, see Supplementary Table 7 for number of males and females) received daily oral dosing of test compounds or vehicle at the indicated concentrations for 7–29 days as indicated. The doses were prepared in a solution of 0.5% methylcellulose and 0.2% polysorbate 80, or 0.5% methylcellulose and hydroxypropyl methylcellulose acetate succinate (high fine grade) and delivered in a volume of 10 ml kg^−1 per day. Blood samples for bioanalytical analysis were collected in K2EDTA tubes via jugular vessel. Plasma was isolated after centrifugation and stored at −20 °C prior to analysis. Animals were given an additional dose the day after the end of the study (days 8, 15 or 30 for 7, 14 and 29 day studies, respectively) then killed by gas anaesthesia (isoflurane) followed by exsanguination ∼3 h after this final dose.
Plasma samples were analysed after protein precipitation by treating 20 μl of sample matrix with 200 μl of acetonitrile containing internal standard. All samples were centrifuged at 3,000 r.p.m. for 5 min. Then 100 μl of supernatant was transferred to a clean plate and evaporated to dryness under N2. Samples were reconstituted in 200 μl of 80:20 (v:v) acetonitrile:water. Samples were analysed on Waters Acquity UPLC connected to AB Sciex API5500 QTrap MS/MS.
Plasma protein binding was determined in the Rapid Equilibrium Device (RED, Thermo Scientific). Frozen plasma was warmed to 37 °C and adjusted to pH 7.4. The plasma was spiked with compound to a final concentration of 2 μM. Aliquots of spiked plasma were added to the donor (red) side, followed by addition of buffer to the receiver (white) side. The RED device was covered with a gas-permeable membrane and agitated within a humidified CO2 incubator (5% CO2, 75% relative humidity). Plasma (15 μl) and buffer (45 μl) were sampled from each insert and were matrix-matched with appropriate blank matrix (plasma with 45 μl buffer and buffer with 15 μl of plasma). Samples were protein-precipitated with acetonitrile containing internal standard, and the resulting supernatant was analysed by LC-MS/MS.

[3] = system: retinal pigment epithelium (RPE); experiment: Exploratory toxicology, ocular toxicity by retinal histology in rats; format: in vivo; conditions: for Male ocular toxicity incidence (positive or negative animals / total evaluated) / Male ocular toxicity outcome / Female ocular toxicity incidence (positive or negative animals / total evaluated) / Female ocular toxicity outcome: rat; for Ocular toxicity: 29-day studies with high daily doses
Method: as §1

[4] = pKa determination by multiplexed capillary electrophoresis; format: physicochemical; conditions: aqueous buffers, read-out: pKa
Method: All pKa values were determined at Analiza, Inc. by multiplexed capillary electrophoresis (mCE) using 96-capillary array electrophoresis instrument to measure the effective mobility (migration time of the compound in relation to neutral marker, DMSO) with ultraviolet detection. The pKa values were obtained from the ionization curves by plotting the compound effective mobility (24 points across pH range 1.7–11.2) versus pH. All pKa results were determined using aqueous buffers with method average absolute error 0.12.

[5] = molecular target: T1, ~30 kDa band (CatD heavy chain) in ARPE-19 cells (Homo sapiens, UniProt P07339); experiment: Live cell PF-7802 labelling, in-gel fluorescence analysis; format: cell-based; conditions: pretreatment 2 µM inhibitor, PF-7802 100 nM
T1 construct: host or cells: ARPE-19
T1 sequence (P07339 169-412 limits assumed): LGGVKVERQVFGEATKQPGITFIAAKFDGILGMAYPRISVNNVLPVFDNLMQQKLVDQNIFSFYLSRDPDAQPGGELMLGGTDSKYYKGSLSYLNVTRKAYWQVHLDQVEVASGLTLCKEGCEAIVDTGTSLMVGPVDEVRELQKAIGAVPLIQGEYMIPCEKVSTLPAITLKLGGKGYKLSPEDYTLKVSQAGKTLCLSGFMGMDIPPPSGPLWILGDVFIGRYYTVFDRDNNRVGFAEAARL
T1 sequence (P07339 65-162 limits assumed): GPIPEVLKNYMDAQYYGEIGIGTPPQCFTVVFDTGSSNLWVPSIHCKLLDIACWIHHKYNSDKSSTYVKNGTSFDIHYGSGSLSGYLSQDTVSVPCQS
Method: Cells were lysed with sonication on ice in 70 μl DPBS and protein concentrations were determined using a BCA assay (Pierce). […] Gels were fixed in 50% MeOH/7% AcOH for 15 min, then rinsed with 40% MeOH for at least 20 min before in-gel fluorescence scanning (Typhoon Trio, excitation 532 nm, emission 580 nm).

BACE1 [6] = molecular target: T2, BACE1 (Homo sapiens, UniProt P56817); experiment: BACE1 biochemical cellular assay (sAPPβ ELISA in H4 cells overexpressing APP695); format: cell-based; set-up: endogenous in cells; host or cells: H4 human neuroglioma cells overexpressing human APP695; conditions: for BACE1 potency increase in live cells: BACE1 enzyme IC50 versus BACE1 cellular IC50
Method: Cellular inhibition of BACE1 was determined by measuring sAPPβ, the primary cleavage product of BACE-1, in H4 human neuroglioma cells overexpressing the wild-type human APP695. […] The colorimetric reaction was read by an EnVision plate reader (PerkinElmer).
Target sequence in this assay (P56817 46-501): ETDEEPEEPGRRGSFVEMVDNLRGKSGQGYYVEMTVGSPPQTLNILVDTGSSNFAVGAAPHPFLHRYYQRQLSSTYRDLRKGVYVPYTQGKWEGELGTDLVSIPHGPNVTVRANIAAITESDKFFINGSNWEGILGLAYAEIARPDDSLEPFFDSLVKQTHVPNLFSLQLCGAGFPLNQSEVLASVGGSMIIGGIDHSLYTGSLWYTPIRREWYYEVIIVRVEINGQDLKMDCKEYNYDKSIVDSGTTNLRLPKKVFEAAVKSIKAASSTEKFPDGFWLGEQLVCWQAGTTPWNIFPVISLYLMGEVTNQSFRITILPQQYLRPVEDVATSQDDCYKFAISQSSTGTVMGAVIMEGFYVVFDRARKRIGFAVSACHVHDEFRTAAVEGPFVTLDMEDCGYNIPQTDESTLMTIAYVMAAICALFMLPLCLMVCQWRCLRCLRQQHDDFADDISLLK

CatD [7] = molecular target: T3, CatD (Homo sapiens, UniProt P07339); experiment: CatD cellular assay (competition of PF-7802 photolabelling in live ARPE-19 cells); format: cell-based; set-up: host or cells: ARPE-19; conditions: for CatD potency increase in live cells: CatD enzyme IC50 versus CatD cellular IC50
Method: ARPE-19 cells were plated at a density of 1.2 × 10^6 cells per well in six-well dishes 12–24 h before probe labelling. Culture media was removed completely and replaced with 1 ml of the appropriate serum-free media (no supplements) per well. Cells were then pretreated with test compounds at the indicated concentrations for 30 min (0.5% DMSO, 37 °C, 5% CO2). […] Ultraviolet irradiation was performed without culture plate lids for efficient irradiation, and samples were slowly rotated to prevent evaporation. After ultraviolet irradiation, cells were washed twice with Dulbecco's phosphate-buffered saline (DPBS), scraped into DPBS, centrifuged and stored as pellets at −80 °C.
Cells were lysed with sonication on ice in 70 μl DPBS and protein concentrations were determined using a BCA assay (Pierce). Total protein concentrations were then normalized to 1 mg ml^−1 in 50 μl total volume before addition of 5.5 μl click chemistry mix (1 : 3 : 1 : 0.5 volume of 50 mM CuSO4 (Sigma) in H2O : 1.7 mM TBTA (Sigma) in 4:1 t-BuOH:DMSO : 50 mM TCEP (Hampton Research) in dPBS : 10 mM TAMRA-azide (Lumiprobe) in DMSO - mixed immediately before use. Reagent solutions can be premade and stored at 4 °C except for TCEP, which should be made immediately before use). […] All fluorescence gels are presented in greyscale.
Target sequence in this assay (P07339 169-412 limits assumed): as the sequence (P07339 169-412 limits assumed) above
Target sequence in this assay (P07339 65-162 limits assumed): as the sequence (P07339 65-162 limits assumed) above

CatD [8] = molecular target: T3, CatD; experiment: CatD purified enzyme fluorescence polarization assay; format: biochemical; set-up: final maturation into a non-covalently associated heavy chain and light chain; purchased Sigma C8696; host or cells: human liver
Method: (§2) Purified enzyme inhibition of BACE1, BACE2, CatD and CatE was determined using fluorescence polarization (FP) assays. Briefly, purified enzymes were treated with test compounds (1% DMSO, 37 °C) in the presence of synthetic peptide substrates (150 nM) in 30 μl total volume of NaOAc buffer (100 mM, pH 4.5, 0.0001% Tween-20) in a 384-well plate. After incubation, reactions were stopped and substrate captured by the addition of 1.5 μM streptavidin, and FP measured with an EnVision plate reader (PerkinElmer, excitation 485 nm, emission 530 nm). […] BACE2 activity was assessed with 0.5 nM recombinant BACE2 (R&D Systems 4097-AS) and the same synthetic substrate used for BACE1, with a 1 h incubation time. […] CatE activity was assessed with 1.0 nM recombinant CatE (Creative BioMart CTSE-255H) and the same synthetic substrate used for CatD, with a 1.5 h incubation time.
Target sequence in this assay (P07339 65-162 limits assumed): as above
Target sequence in this assay (P07339 169-412 limits assumed): as the sequence (P07339 169-412 limits assumed) above

BACE1 [9] = molecular target: T2, BACE1; experiment: BACE1 purified enzyme fluorescence polarization assay; format: biochemical; set-up: His (C); made in house; host or cells: CHO-K1; conditions: purified human enzyme, fluorescence polarization, peptide substrate
Method: as §2
Target sequence in this assay (P56817 46-457): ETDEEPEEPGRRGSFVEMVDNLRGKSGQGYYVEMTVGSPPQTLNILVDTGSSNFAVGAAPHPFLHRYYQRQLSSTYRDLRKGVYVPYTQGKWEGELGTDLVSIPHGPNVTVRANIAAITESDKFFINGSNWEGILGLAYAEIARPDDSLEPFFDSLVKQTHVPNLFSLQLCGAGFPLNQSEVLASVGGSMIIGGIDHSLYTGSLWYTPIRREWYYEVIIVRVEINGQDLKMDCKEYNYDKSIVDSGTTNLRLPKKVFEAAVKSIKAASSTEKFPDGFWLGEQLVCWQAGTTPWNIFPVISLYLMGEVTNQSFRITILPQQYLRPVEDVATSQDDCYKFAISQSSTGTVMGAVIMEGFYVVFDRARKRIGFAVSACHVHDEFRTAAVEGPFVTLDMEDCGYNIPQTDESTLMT

BACE2 = molecular target: T4, BACE2 (Homo sapiens, UniProt Q9Y5Z0); experiment: BACE2 purified enzyme fluorescence polarization assay; format: biochemical; conditions: purified human enzyme, fluorescence polarization
T4 construct: purchased R&D Systems 4097-AS
T4 sequence (Q9Y5Z0 63-518): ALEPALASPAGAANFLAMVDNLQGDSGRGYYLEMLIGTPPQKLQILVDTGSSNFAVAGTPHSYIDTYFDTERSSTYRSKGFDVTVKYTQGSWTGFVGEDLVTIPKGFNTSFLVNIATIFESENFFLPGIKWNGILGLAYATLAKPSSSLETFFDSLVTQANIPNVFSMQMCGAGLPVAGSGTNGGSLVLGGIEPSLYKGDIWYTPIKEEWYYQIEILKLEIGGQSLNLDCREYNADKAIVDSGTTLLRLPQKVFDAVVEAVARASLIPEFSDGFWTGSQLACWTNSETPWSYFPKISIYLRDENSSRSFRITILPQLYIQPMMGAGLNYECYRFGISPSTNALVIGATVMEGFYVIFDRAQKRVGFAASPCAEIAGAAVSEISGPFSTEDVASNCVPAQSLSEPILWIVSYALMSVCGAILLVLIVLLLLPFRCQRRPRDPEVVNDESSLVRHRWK
Method: as §2

CatD [10] = conditions: read-out: IC50 against purified CatD in vitro; cited from earlier work
[11] = 29 days, 100 mg kg-1 once daily

Sequence of CatD in ARPE-19 cells (P07339 169-412 limits assumed): as the sequence (P07339 169-412 limits assumed) above
Sequence of CatD in ARPE-19 cells (P07339 65-162 limits assumed): as the sequence (P07339 65-162 limits assumed) above

Cl.N [ammonium chloride]
PF-7802 labelling of CatD after lysosome neutralization (CatD in ARPE-19 cells): significantly decreased labelling of CatD

C[C@@]1(c2cc(-c3cncnc3)c(F)cc2F)CCSC(N)=N1 [LY2811376, reference compound]
Ocular toxicity in preclinical animal models [1]: ocular toxicity in preclinical animal models | concentration at 7 days ([2]; 25 mg kg-1 once daily): 741 nM | concentration at 7 days ([2]; 75 mg kg-1 once daily): 4370 nM | Male ocular toxicity incidence (positive or negative animals / total evaluated) ([3]; 7 days, 25 mg kg-1 once daily): 1/4 | Male ocular toxicity outcome ([3]; 7 days, 25 mg kg-1 once daily): Pos | Male ocular toxicity incidence (positive or negative animals / total evaluated) ([3]; 7 days, 75 mg kg-1 once daily): 4/4 | Male ocular toxicity outcome ([3]; 7 days, 75 mg kg-1 once daily): Pos | pKa [4]: 8.9 | Competition of PF-7802 labelling of the 30 kDa band [5]: blocked labelling of the 30 kDa band | BACE1 potency increase in live cells (BACE1 [6]): 18 x | CatD potency difference between cell-free enzyme and cellular assays (CatD [7]): 95 fold | CatD potency increase in live cells (CatD [7]): 95 x

CC1(C#Cc2cnc3c(c2)[C@]2(COC(N)=N2)c2cc(-c4cccnc4F)ccc2O3)COC1 [AMG-8718, (S)-7-(2-Fluoropyridin-3-yl)-3-((3-methyloxetan-3-yl)ethynyl)-5′H-spiro[chromeno[2,3-b]pyridine-5,4′-oxazol]-2′-amine]
Ocular toxicity in preclinical animal models [1]: ocular toxicity in preclinical animal models

CO/C1=C\C(C)=C\[C@@H](C)[C@@H](O)[C@@H](C)C/C(C)=C/C=C/[C@H](OC)[C@@H]([C@@H](C)[C@@H](O)[C@H](C)[C@@]2(O)C[C@@H](O)[C@H](C)[C@@H](C(C)C)O2)OC1=O [bafilomycin A1]
PF-7802 labelling of CatD after lysosome neutralization (CatD in ARPE-19 cells): significantly decreased labelling of CatD

COc1cnc(C(=O)Nc2ccc(F)c([C@]3(C)CS(=O)(=O)N(C)C(N)=N3)c2)cn1 [SG1, reference compound]
concentration at 29 days ([2]; 60 mg kg-1 once daily): 1560 nM | Female ocular toxicity incidence (positive or negative animals / total evaluated) ([3]; 29 days, 60 mg kg-1 once daily): 4/4 | Female ocular toxicity outcome ([3]; 29 days, 60 mg kg-1 once daily): Neg (negative (neg) if there was no ocular abnormality observed) | Male ocular toxicity incidence (positive or negative animals / total evaluated) ([3]; 29 days, 60 mg kg-1 once daily): 4/4 | Male ocular toxicity outcome ([3]; 29 days, 60 mg kg-1 once daily): Neg (negative (neg) if there was no ocular abnormality observed) | Ocular toxicity ([3]; rats): negative for ocular toxicity; also recorded: no ocular findings; also recorded: no ocular toxicity | pKa [4]: 6.9 | IC50 (CatD [8]; purified human enzyme, fluorescence polarization, substrate-based): > 100000 nM | IC50 (BACE1 [9]): 6 nM | IC50 (BACE2): 17 nM | BACE1 potency increase in live cells (BACE1 [6]): 10 x | IC50 (BACE1 [6]; sAPPβ ELISA, H4 neuroglioma cells with human wild-type APP): 0.59 nM | CatD potency increase in live cells (CatD [7]): > 34 x | BACE1 selectivity over CatD in cells (CatD [7]; cellular inhibition of BACE1 cleavage of APP versus inhibition of CatD labelling by PF-7802): > 2,000 fold | IC50 (CatD [7]; live ARPE-19 cells, PF-7802 photoprobe 100 nM, 30 min): 2900 nM

NC1=N[C@@]2(c3cc(NC(=O)c4ccc(F)cn4)ccc3F)COC[C@H]2CS1 [LY2886721, reference compound]
concentration at 29 days ([2]; 100 mg kg-1 once daily): 3480 nM | Female ocular toxicity incidence (positive or negative animals / total evaluated) [3, 11]: 4/4 | Female ocular toxicity outcome [3, 11]: Neg (negative (neg) if there was no ocular abnormality observed) | Male ocular toxicity incidence (positive or negative animals / total evaluated) [3, 11]: 4/4 | Male ocular toxicity outcome [3, 11]: Neg (negative (neg) if there was no ocular abnormality observed) | Retinal finding by fluorescence microscopy ([3]; rats, 100 mg kg-1 daily, 29 days): no ocular abnormality was observed | Ocular toxicity ([3]; rats): negative for ocular toxicity; also recorded: no ocular findings; also recorded: no ocular toxicity | pKa [4]: 7.6 | Inhibition of purified CatD (CatD [8]; purified CatD biochemical substrate assay): inactive | BACE1 potency increase in live cells (BACE1 [6]): 13 x | CatD potency difference between cell-free enzyme and cellular assays (CatD [7]): > 15 fold | CatD potency increase in live cells (CatD [7]): > 15 x | IC50 (CatD [10]): > 100000 nM
